Measurements reported in the NIST ThermoML archive (doi:10.1021/je5000132).
Numbers after ± are expanded uncertainties.

Columns and labels:
[1] = for speed of sound: 100 kPa, Pulse-echo method; for speed of sound / viscosity / mass density: Liquid; for viscosity / mass density: 101 kPa; for viscosity: Concentric cylinders viscometry; for mass density: Vibrating tube method; for surface tension liquid-gas: 294.7 K, Drop volume
[2] = xn = mol fraction of the nth substance listed; conditions: x2 = 0; for speed of sound: 100 kPa, Pulse-echo method; for speed of sound / viscosity / mass density: Liquid; for viscosity / mass density: 101 kPa; for viscosity: Concentric cylinders viscometry; for mass density: Vibrating tube method; for surface tension liquid-gas: 294.7 K, Drop volume

CC(CC(C)(C)C)CC(C)(C)CC(C)(C)C (configuration not stated) [2,2,4,4,6,8,8-heptamethylnonane]
[1]
Conditions | mass density [kg/m3] | speed of sound [m/s] | viscosity [mPa·s]
293.15 K | 784.457 ± 0.69 | 1285.7 ± 2.2 | 3.7 ± 0.043
303.15 K | 777.761 ± 0.68 | 1248.5 ± 2.2 | 2.92 ± 0.035
313.15 K | 771.044 ± 0.68 | 1211.8 ± 2.2 | 2.37 ± 0.03
323.15 K | 764.316 ± 0.67 | 1176 ± 2.2 | 1.95 ± 0.027
333.15 K | 757.571 ± 0.67 | 1140.8 ± 2.2 | 1.63 ± 0.024
343.15 K | 750.7 ± 0.7 | – | 1.39 ± 0.022
353.15 K | 743.8 ± 0.7 | – | 1.19 ± 0.021
363.15 K | 736.8 ± 0.7 | – | 1.04 ± 0.02
373.15 K | 729.9 ± 0.7 | – | 0.914 ± 0.019

Conditions | surface tension liquid-gas [mN/m]
[1] | 24 ± 0.3

CCCCCCCCCCCC [dodecane] + CC(CC(C)(C)C)CC(C)(C)C
[2]
Conditions | mass density [kg/m3] | speed of sound [m/s] | viscosity [mPa·s]
293.15 K | 748.893 ± 0.55 | 1297.6 ± 1.3 | 1.49 ± 0.019
303.15 K | 741.635 ± 0.55 | 1259.3 ± 1.3 | 1.25 ± 0.019
313.15 K | 734.349 ± 0.55 | 1221.4 ± 1.3 | 1.06 ± 0.018
323.15 K | 727.038 ± 0.55 | 1184.2 ± 1.3 | 0.916 ± 0.018
333.15 K | 719.691 ± 0.55 | 1147.5 ± 1.3 | 0.799 ± 0.017
343.15 K | 712.2 ± 0.55 | – | 0.704 ± 0.017
353.15 K | 704.7 ± 0.55 | – | 0.625 ± 0.017
363.15 K | 697.1 ± 0.55 | – | 0.56 ± 0.017
373.15 K | 689.6 ± 0.55 | – | 0.506 ± 0.017

Conditions | surface tension liquid-gas [mN/m]
[2] | 25.3 ± 0.3

CC(CC(C)(C)C)CC(C)(C)C [2,2,4,6,6-pentamethylheptane]
[1]
Conditions | speed of sound [m/s]
293.15 K | 1203.6 ± 2.2
303.15 K | 1164.8 ± 2.2
313.15 K | 1126.7 ± 2.2
323.15 K | 1089.3 ± 2.2
333.15 K | 1052.5 ± 2.2

Conditions | surface tension liquid-gas [mN/m]
[1] | 21.8 ± 0.3

CCCCCCCCCCCC [dodecane]
[1]
Conditions | mass density [kg/m3] | speed of sound [m/s] | viscosity [mPa·s]
293.15 K | 748.893 ± 0.46 | 1297.6 ± 1.3 | 1.49 ± 0.019
303.15 K | 741.635 ± 0.46 | 1259.3 ± 1.3 | 1.25 ± 0.019
313.15 K | 734.349 ± 0.46 | 1221.4 ± 1.3 | 1.06 ± 0.018
323.15 K | 727.038 ± 0.46 | 1184.2 ± 1.3 | 0.916 ± 0.018
333.15 K | 719.691 ± 0.46 | 1147.5 ± 1.3 | 0.799 ± 0.017
343.15 K | 712.2 ± 0.46 | – | 0.704 ± 0.017
353.15 K | 704.7 ± 0.46 | – | 0.625 ± 0.017
363.15 K | 697.1 ± 0.46 | – | 0.56 ± 0.017
373.15 K | 689.6 ± 0.46 | – | 0.506 ± 0.017

Conditions | surface tension liquid-gas [mN/m]
[1] | 25.3 ± 0.3

CCCCCCCCCCCC [dodecane] + CC(CC(C)(C)C)CC(C)(C)CC(C)(C)C
[2]
Conditions | mass density [kg/m3] | speed of sound [m/s] | viscosity [mPa·s]
293.15 K | 748.893 ± 1 | 1297.6 ± 1.3 | 1.49 ± 0.019
303.15 K | 741.635 ± 1 | 1259.3 ± 1.3 | 1.25 ± 0.019
313.15 K | 734.349 ± 1 | 1221.4 ± 1.3 | 1.06 ± 0.018
323.15 K | 727.038 ± 1 | 1184.2 ± 1.3 | 0.916 ± 0.018
333.15 K | 719.691 ± 1 | 1147.5 ± 1.3 | 0.799 ± 0.017
343.15 K | 712.2 ± 1 | – | 0.704 ± 0.017
353.15 K | 704.7 ± 1 | – | 0.625 ± 0.017
363.15 K | 697.1 ± 1 | – | 0.56 ± 0.017
373.15 K | 689.6 ± 1 | – | 0.506 ± 0.017

Conditions | surface tension liquid-gas [mN/m]
[2] | 25.3 ± 0.3
